Assays:
[1] = tested on: shoots of Jatropha curcas; experiment: Rooting of well grown shoots on full strength MS medium; assay type: cell-based; details: full strength MS medium supplemented with IBA (0.41 μM)
Procedure: Well grown shoots of Jatropha curcas were separated individually and rooted on full strength MS medium supplemented with IBA (0.41 μM). Rooting was 80% and occurred after 30-45 days of culture without any intermediary callus phase. (FIG. 4)

[2] = tested on: Jatropha leaf disc explants; experiment: Adventitious bud induction and callus formation from leaf disc explants on initiation media; assay type: cell-based, Jatropha curcas; details: TDZ treatment
Description: Micropropagated true-to-type Jatropha curcas plants were produced and leaf discs were isolated and sterilized using the methods described in Example 1.
Experiments were set-up in a single-factor CRD (one-way ANOVA) to identify the most optimal concentrations of TDZ, BAP, and IBA in the initiation media. Initiated shoots were further propagated as described in the above Examples by being transferred to proliferation and elongation medium which was MS medium (Table 2) with 3% sucrose (w/v), pH 5.8 and solidified with 0.8% agar supplemented with TDZ (0.22 μM)+BAP (4.44 μM)+gibberelic acid (0.70 μM)+IBA (0.50 μM).
All the treatments were performed with 25 replicates, each replication having 8 leaf discs. Data on number of shoots per leaf disc were recorded after 6 weeks of culture.
Leaf discs cultured on almost all hormonal combinations readily produced hard and compact callus on cut surface within 30 days of culture. The adventitious bud induction from leaf disc explants was studied in presence of various concentrations of TDZ and BAP as a source of cytokinin along with very low levels of IBA.
Data scored after 6 weeks of culture inoculation.

Structure (SMILES)	Time until rooting occurred [1] [days]	Rooting ([1]; without intermediary callus phase) [%]	total number of shoot bud induction per leaf disc [2]
O=C(O)CCCc1c[nH]c2ccccc12 [IBA, indole-3-butyric acid]	30 to 45	80	–
O=C(Nc1ccccc1)Nc1cnns1 [TDZ, 1-phenyl-3-(1,2,3-thiadiazol-5-yl) urea]	–	–	4-20 buds

Source: patent US8304239B2, “Direct regeneration of plantlets in Jatropha curcas” (Reliance Life Sciences PVT Ltd., priority 2006, dated 2012)
